According to patent US10766914B2, “DNA alkylating agents” (OBI PHARMA, INC., priority 2015, dated 2020):

Assays:
[1] = system: NCI-H660; test: TH2870 sensitivity in prostate cancer cell lines; assay type: cell-based; details: Homo sapiens
[2] = system: A375 melanoma human tumor xenograft; test: Example 4-C antitumor efficacy, ectopic A375 melanoma xenograft model; assay type: in vivo, female nude mice (nu/nu); details: qd × 5 × 2, ip
[3] = system: H460 NSCLC xenograft; test: Example 4-I antitumor efficacy, ectopic H460 NSCLC xenograft model; assay type: in vivo, female nude mice (nu/nu); details: iv, Q7D × 3; for TGD500, Days (vs. vehicle) / TGD1000, Days (vs. vehicle): H460; for TGI: H460, 250 mm3 tumors on day 1
Source text: (§1) Specific pathogen-free homozygous female nude mice (nu/nu, Charles River Laboratories) were used. Mice were given food and water ad libitum and housed in microisolator cages. Four to six week old animals were identified by microchips (Locus Technology, Manchester, Md., USA) at the time of the experiments. All animal studies were approved by the Institutional Animal Care and Use Committee at Threshold Pharmaceuticals, Inc.
(§2) All cell lines were from the American Type Culture Collection (ATCC, Rockville, Md., USA).
(§3) Cells were mixed with Matrigel (50% with exception for 30% in the H460) and 0.2 ml per mouse were subcutaneously implanted to the flank area of the animals. When tumor size reached 100-150 250 mm3, mice were randomized into experimental or vehicle groups with 10 mice/group and treatment was started (Day 1). The tested compounds were formulated in 5% DMSO in D5W. The regimens employed in the examples include IP, QD×5/wk (5 days on, 2 days off) as one cycle, for a total of 2 cycles; IP, once; IP, weekly for total 3 weeks; and IV, weekly for 3 weeks. Tumor growth and body weight were measured twice a week. Tumor volume was calculated as (length×width2)/2. Drug efficacy was assessed as Tumor Growth Inhibition (TGI) and Tumor Growth Delay (TGD). TGI was defined as (1−ΔT/ΔC)×100, where ΔT/ΔC presented the ratio of the change in mean (or median, if variation within the group was relatively large) tumor volume of the treated group and of the control group. TGD was calculated as the extra days for the treated tumor to reach 500 mm3 or 1000 mm3 as compared to the control group. Animals were culled when individual tumor size reached over 2000 mm3 or mean tumor volume exceeded 1000 mm3 in the group. Data are expressed as the mean±SEM. One-way analysis of variance with Dunnett post comparison test (GraphPad Prism 4) or two-tailed student's t-test were used for analysis. A P level <0.05 was considered statistically significant.
The compound TH-2870 was tested in a H460 model. The compound was dosed follows. 1.5, 5 or 15 mg/kg, IV, weekly for 3 weeks at 250 mm^3 tumors on day 1 (10 animals per group average tumor volume), comparing with docetaxel. The antitumor effects and the safety of administration are graphically illustrated below.

[4] = system: A 549 non-small cell lung xenograft; test: Example 4-B antitumor efficacy, ectopic A549 NSCLC xenograft model; assay type: in vivo, female nude mice (nu/nu); details: 20 mg/kg ip QD × 5/wk × 2 wks
Source text: as §1, §2, §3
The dosing was as follows. Daily IP dosing: 5 doses then 2 days off then 5 more doses starting at 110 mm^3 tumors on day 1 (10 animals per group average tumor volume).
Doses were selected by first doing a toxicity test in CD1 mice as described above. The compounds were tested against Thio-tepa.

[5] = system: Hep G2; test: TH2870 sensitivity in liver cancer cells; assay type: cell-based, human
[6] = system: HLF; test: TH2870 sensitivity in liver cancer cells; assay type: cell-based, human; details: AKR1C3 expression /
[7] = system: HLE; test: TH2870 sensitivity in liver cancer cells; assay type: cell-based, human; details: AKR1C3 expression ++
[8] = system: C3A; test: TH2870 sensitivity in liver cancer cells; assay type: cell-based, human; details: AKR1C3 expression ++++
[9] = system: LIXC-011; test: TH2870 sensitivity in liver cancer cells; assay type: cell-based, human; details: AKR1C3 expression ++++
[10] = system: A549 NSCLC xenograft; test: Example 4-D antitumor efficacy, ectopic A549 NSCLC xenograft model; assay type: in vivo, female nude mice (nu/nu)
Source text: as §1, §2, §3
(§4) The compounds were tested in another A549 model. The compounds were dosed as follows. Daily IP dosing: 5 doses then 2 days off then 5 more doses starting at 100 mm^3 tumors on day 1 (10 animals per group average tumor volume). The antitumor effects and the safety of administration are graphically illustrated below.

[11] = system: LIXC-002; test: TH2870 sensitivity in liver cancer cells; assay type: cell-based, human; details: AKR1C3 expression +++
[12] = system: 22RV1; test: TH2870 sensitivity in prostate cancer cell lines; assay type: cell-based; details: Homo sapiens
[13] = system: LIC-0903; test: TH2870 sensitivity in liver cancer cells; assay type: cell-based, human; details: AKR1C3 expression ++++
[14] = system: HuCCT1; test: TH2870 sensitivity in liver cancer cells; assay type: cell-based, human
[15] = system: MDA-Pca-2b; test: TH2870 sensitivity in prostate cancer cell lines; assay type: cell-based; details: Homo sapiens
[16] = system: PC-3; test: TH2870 sensitivity in prostate cancer cell lines; assay type: cell-based; details: Homo sapiens
[17] = system: LIXC-012; test: TH2870 sensitivity in liver cancer cells; assay type: cell-based, human; details: AKR1C3 expression ++++
[18] = in vivo; details: mouse, ip, 20 mg/kg
Description: The pharmacokinetics of TH2870 were determined in Mouse/Nu-Foxn 1^nu NU/NU mice with A549 (non small cell lung), A375 (melanoma) and 786-O (renal cell) human tumor xenograft models following a single intraperitoneal dose of 20 mg/kg.

[19] = Example 4-D body weight change and lethal toxicity, A549 xenograft study; assay type: in vivo, female nude mice (nu/nu); details: for Lethal Tox: 10 animals per group
Description: as §3, §4

[20] = system: LIXC-003; test: TH2870 sensitivity in liver cancer cells; assay type: cell-based, human; details: AKR1C3 expression ++++
[21] = Homo sapiens, read-out: RelIC50

SMILES: CC(OP(=O)(N1CC1)N1CC1)c1ccc([N+](=O)[O-])c(Oc2cccc(C(=O)N(C)C)c2)c1 (centres unmarked) [Compound 2870]
- IC50 [1]: > 300 nM
- TGD 500 ([2]; 20 mpk): 24 days
- TGD 1000 ([2]; 20 mpk): >18 days
- inhibition in vivo at 20 mg/kg ([2]; Mus musculus, A-375, 20 mpk, read-out: TGI): 98%
- TGD500, Days (vs. vehicle) ([3]; 1.5 mg/kg): 18 days
- TGD1000, Days (vs. vehicle) ([3]; 1.5 mg/kg): 18 days
- TGI ([3]; 1.5 mg/kg): 100.0%
- TGD500, Days (vs. vehicle) ([3]; 5 mg/kg): 36 days
- TGD1000, Days (vs. vehicle) ([3]; 5 mg/kg): 38 days
- TGI ([3]; 5 mg/kg): 121.3%
- TGD500, Days (vs. vehicle) ([3]; 15 mg/kg): 49 days
- TGD1000, Days (vs. vehicle) ([3]; 15 mg/kg): 50 days
- TGI ([3]; 15 mg/kg): 121.6%
- TGD 500 [4]: >72 days
- TGI [4]: 102.3%
- Max Inhibition % ([5]; AKR1C3 expression ++++): 98.9%
- IC50 ([5]; Homo sapiens, HepG2, AKR1C3 expression ++++, read-out: RelIC50): 5.5 nM
- Max Inhibition % [6]: 22.5%
- IC50 [6, 21]: > 1000 nM
- Max Inhibition % [7]: 80.5%
- IC50 [7, 21]: 84.2 nM
- Max Inhibition % [8]: 98.1%
- IC50 [8, 21]: 7.1 nM
- Max Inhibition % [9]: 97.4%
- IC50 [9, 21]: 40.8 nM
- TGD 500 ([10]; 20 mg/kg IP QD × 5/wk × 2 wks): >85 days
- TGI ([10]; 20 mg/kg IP QD × 5/wk × 2 wks): 95.0%
- TGD 500 ([10]; 40 mg/kg IV 2/wk × 2 wks): >85 days
- TGI ([10]; 40 mg/kg IV 2/wk × 2 wks): 98.6%
- Max Inhibition % [11]: 99.1%
- IC50 [11, 21]: 56 nM
- IC50 [12]: 1.9 nM
- Max Inhibition % [13]: 96.3%
- IC50 [13, 21]: 81.9 nM
- Max Inhibition % ([14]; AKR1C3 expression +): 66.7%
- IC50 ([14]; Homo sapiens, HuCCT-1, AKR1C3 expression +, read-out: RelIC50): 125 nM
- IC50 [15]: > 300 nM
- IC50 [16]: 161 nM
- Max Inhibition % [17]: 87.1%
- Kp ([18]; Nu-Foxn1nu NU/NU): 0.0079 to 0.326
- Tmax ([18]; Nu-Foxn1nu NU/NU): 5 min
- AUC ([18]; Nu-Foxn 1nu NU/NU, AUC): 1570 ng·h/mL
- Cmax ([18]; Nu-Foxn 1nu NU/NU, Cmax): 5010 ng/mL
- half-life ([18]; Nu-Foxn 1nu NU/NU, Half-Life): 11.3 min
- Max. BW loss % ([19]; 20 mg/kg IP QD × 5/wk × 2 wks): 0.3%
- Lethal Tox ([19]; 20 mg/kg IP QD × 5/wk × 2 wks): 0
- Max. BW loss % ([19]; 40 mg/kg IV 2/wk × 2 wks): 2.0%
- Lethal Tox ([19]; 40 mg/kg IV 2/wk × 2 wks): 1
- Max Inhibition % [20]: 44.6%
- IC50 [20, 21]: 5.4 nM
